Experiments:
Assay in all cases: relative viability (nuclei count vs DMSO), 5 days (fraction); higher = more cells survive
[1] = compound: CCN1C(=O)C2=CC(=C(N=C2N(C1=O)C3CC3)N)C(=O)N
Outline: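 Five library-drug doses spaced by √10 were pinned onto vehicle-anchored 1536-well plates of lung cancer cell lines that had been kept overnight at 37 °C. Cells went 5 days without medium change, then were fixed, permeabilised and Hoechst-stained together, imaged at 4× and counted by MetaXpress. Viability is the ratio of treated-well to vehicle-well nuclei, taken as a median over plates. Plates required control CV below 25% and at least one doubling.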

[2] = compound: CCN1C(=O)C2=CC(=C(N=C2N(C1=O)C3CC3)N)C(=O)N + Cc1nc(Nc2ncc(C(=O)Nc3c(C)cccc3Cl)s2)cc(N2CCN(CCO)CC2)n1 [Dasatinib] (partner 0.075 µM)
Outline: (§1)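 Cells from lung cancer lines were seeded into 1536-well plates and, one day later, dosed by pin tool. Treatments were either a single drug or a fixed dose of an anchor drug with five library-drug doses (not always all listed) in √10 steps. After 5 days, nuclei were stained in a one-step fixation (final 0.05% Triton X-100, 1% formaldehyde, 1 ug/ml Hoechst) and counted on 4× images, and relative viability is the treated-to-vehicle nuclei ratio, as the median of duplicate plates.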

[3] = compound: CCN1C(=O)C2=CC(=C(N=C2N(C1=O)C3CC3)N)C(=O)N + Cc1nc(NC(=O)N2CCC[C@H]2C(N)=O)sc1-c1ccnc(C(C)(C)C(F)(F)F)c1 [Alpelisib] (partner 2 µM)
Outline: as §1

[4] = compound: CCN1C(=O)C2=CC(=C(N=C2N(C1=O)C3CC3)N)C(=O)N + O=C(c1cc(Cc2n[nH]c(=O)c3ccccc23)ccc1F)N1CCN(C(=O)C2CC2)CC1 [Olaparib] (partner 8 µM)
Outline: as §1

[5] = compound: CCN1C(=O)C2=CC(=C(N=C2N(C1=O)C3CC3)N)C(=O)N + C[C@@H](Oc1cc(-c2cnn(C3CCNCC3)c2)cnc1N)c1c(Cl)ccc(F)c1Cl [Crizotinib] (partner 1 µM)
Outline: as §1

Cell Line: NCI-H2405
- relative viability ([1]; 0.253 µM): 1.09
- relative viability ([1]; 0.8 µM): 1.02
- relative viability ([1]; 2.53 µM): 1.06
- relative viability ([1]; 8 µM): 0.982
- relative viability ([2]; first compound 0.253 µM): 0.196
- relative viability ([2]; first compound 0.8 µM): 0.185
- relative viability ([2]; first compound 2.53 µM): 0.227
- relative viability ([2]; first compound 8 µM): 0.174
- relative viability ([3]; first compound 0.253 µM): 0.909
- relative viability ([3]; first compound 0.8 µM): 0.79
- relative viability ([3]; first compound 2.53 µM): 0.767
- relative viability ([3]; first compound 8 µM): 0.723
- relative viability ([4]; first compound 0.253 µM): 0.9
- relative viability ([4]; first compound 2.53 µM): 0.904
- relative viability ([4]; first compound 8 µM): 0.91
- relative viability ([5]; first compound 0.253 µM): 0.866
- relative viability ([5]; first compound 0.8 µM): 0.844
- relative viability ([5]; first compound 2.53 µM): 0.817
- relative viability ([5]; first compound 8 µM): 0.873

Cell Line: NCI-H3122
- relative viability ([1]; 0.253 µM): 1.01
- relative viability ([1]; 0.8 µM): 1.01
- relative viability ([1]; 2.53 µM): 0.993
- relative viability ([1]; 8 µM): 0.956
- relative viability ([2]; first compound 0.253 µM): 0.772
- relative viability ([2]; first compound 0.8 µM): 0.803
- relative viability ([2]; first compound 2.53 µM): 0.81
- relative viability ([2]; first compound 8 µM): 0.788
- relative viability ([3]; first compound 0.253 µM): 0.748
- relative viability ([3]; first compound 0.8 µM): 0.755
- relative viability ([3]; first compound 2.53 µM): 0.717
- relative viability ([3]; first compound 8 µM): 0.819
- relative viability ([4]; first compound 0.253 µM): 0.636
- relative viability ([4]; first compound 0.8 µM): 0.659
- relative viability ([4]; first compound 2.53 µM): 0.624
- relative viability ([4]; first compound 8 µM): 0.581
- relative viability ([5]; first compound 0.253 µM): 0.257
- relative viability ([5]; first compound 0.8 µM): 0.273
- relative viability ([5]; first compound 2.53 µM): 0.27
- relative viability ([5]; first compound 8 µM): 0.277

Cell Line: PC-3 [JPC-3]
- relative viability ([1]; 0.253 µM): 1.06
- relative viability ([1]; 0.8 µM): 1.01
- relative viability ([1]; 2.53 µM): 1.06
- relative viability ([1]; 8 µM): 1.08
- relative viability ([2]; first compound 0.253 µM): 1.05
- relative viability ([2]; first compound 0.8 µM): 1.04
- relative viability ([2]; first compound 2.53 µM): 1.05
- relative viability ([2]; first compound 8 µM): 0.973
- relative viability ([3]; first compound 0.253 µM): 1.06
- relative viability ([3]; first compound 0.8 µM): 1
- relative viability ([3]; first compound 2.53 µM): 0.981
- relative viability ([3]; first compound 8 µM): 1.16
- relative viability ([4]; first compound 0.253 µM): 1.13
- relative viability ([4]; first compound 2.53 µM): 1.18
- relative viability ([4]; first compound 8 µM): 1.21
- relative viability ([5]; first compound 0.253 µM): 1.04
- relative viability ([5]; first compound 0.8 µM): 0.953
- relative viability ([5]; first compound 2.53 µM): 0.914
- relative viability ([5]; first compound 8 µM): 0.94

Cell Line: PC-14
- relative viability ([1]; 0.253 µM): 0.983
- relative viability ([1]; 0.8 µM): 0.951
- relative viability ([1]; 2.53 µM): 1.07
- relative viability ([1]; 8 µM): 1.06
- relative viability ([2]; first compound 0.253 µM): 0.244
- relative viability ([2]; first compound 0.8 µM): 0.258
- relative viability ([2]; first compound 2.53 µM): 0.252
- relative viability ([2]; first compound 8 µM): 0.298
- relative viability ([3]; first compound 0.253 µM): 0.928
- relative viability ([3]; first compound 0.8 µM): 0.942
- relative viability ([3]; first compound 2.53 µM): 0.913
- relative viability ([3]; first compound 8 µM): 1.06
- relative viability ([4]; first compound 0.253 µM): 0.196
- relative viability ([4]; first compound 0.8 µM): 0.26
- relative viability ([4]; first compound 2.53 µM): 0.306
- relative viability ([4]; first compound 8 µM): 0.308
- relative viability ([5]; first compound 0.253 µM): 0.973
- relative viability ([5]; first compound 0.8 µM): 0.939
- relative viability ([5]; first compound 2.53 µM): 0.845
- relative viability ([5]; first compound 8 µM): 0.941

Cell Line: RERF-LC-KJ
- relative viability ([1]; 0.253 µM): 1.02
- relative viability ([1]; 0.8 µM): 0.929
- relative viability ([1]; 2.53 µM): 0.909
- relative viability ([1]; 8 µM): 0.959
- relative viability ([2]; first compound 0.253 µM): 0.76
- relative viability ([2]; first compound 0.8 µM): 0.82
- relative viability ([2]; first compound 2.53 µM): 0.676
- relative viability ([2]; first compound 8 µM): 0.795
- relative viability ([3]; first compound 0.253 µM): 0.792
- relative viability ([3]; first compound 0.8 µM): 0.791
- relative viability ([3]; first compound 2.53 µM): 0.763
- relative viability ([3]; first compound 8 µM): 0.838
- relative viability ([4]; first compound 0.253 µM): 0.887
- relative viability ([4]; first compound 0.8 µM): 0.89
- relative viability ([4]; first compound 2.53 µM): 0.883
- relative viability ([4]; first compound 8 µM): 0.897
- relative viability ([5]; first compound 0.253 µM): 0.783
- relative viability ([5]; first compound 0.8 µM): 0.842
- relative viability ([5]; first compound 2.53 µM): 0.796
- relative viability ([5]; first compound 8 µM): 0.858

Cell Line: SK-LU-1
- relative viability ([1]; 0.253 µM): 1.05
- relative viability ([1]; 0.8 µM): 1.07
- relative viability ([1]; 2.53 µM): 1.06
- relative viability ([1]; 8 µM): 1.06
- relative viability ([2]; first compound 0.253 µM): 0.196
- relative viability ([2]; first compound 0.8 µM): 0.184
- relative viability ([2]; first compound 2.53 µM): 0.176
- relative viability ([2]; first compound 8 µM): 0.187
- relative viability ([3]; first compound 0.253 µM): 1.1
- relative viability ([3]; first compound 0.8 µM): 0.992
- relative viability ([3]; first compound 2.53 µM): 1.04
- relative viability ([3]; first compound 8 µM): 1.38
- relative viability ([4]; first compound 0.253 µM): 0.458
- relative viability ([4]; first compound 0.8 µM): 0.446
- relative viability ([4]; first compound 2.53 µM): 0.429
- relative viability ([4]; first compound 8 µM): 0.493
- relative viability ([5]; first compound 0.253 µM): 1.11
- relative viability ([5]; first compound 0.8 µM): 0.749
- relative viability ([5]; first compound 2.53 µM): 0.805
- relative viability ([5]; first compound 8 µM): 0.931

Cell Line: SK-MES-1
- relative viability ([1]; 0.253 µM): 1.01
- relative viability ([1]; 0.8 µM): 0.972
- relative viability ([1]; 2.53 µM): 0.976
- relative viability ([1]; 8 µM): 0.997
- relative viability ([2]; first compound 0.253 µM): 0.409
- relative viability ([2]; first compound 0.8 µM): 0.393
- relative viability ([2]; first compound 2.53 µM): 0.393
- relative viability ([2]; first compound 8 µM): 0.448
- relative viability ([3]; first compound 0.253 µM): 0.865
- relative viability ([3]; first compound 0.8 µM): 0.917
- relative viability ([3]; first compound 2.53 µM): 0.85
- relative viability ([3]; first compound 8 µM): 0.962
- relative viability ([4]; first compound 0.253 µM): 0.77
- relative viability ([4]; first compound 0.8 µM): 0.76
- relative viability ([4]; first compound 2.53 µM): 0.713
- relative viability ([4]; first compound 8 µM): 0.665
- relative viability ([5]; first compound 0.253 µM): 1.02
- relative viability ([5]; first compound 0.8 µM): 0.966
- relative viability ([5]; first compound 2.53 µM): 0.926
- relative viability ([5]; first compound 8 µM): 0.946

Cell Line: SW 1573
- relative viability ([1]; 0.253 µM): 0.937
- relative viability ([1]; 0.8 µM): 1.07
- relative viability ([1]; 2.53 µM): 0.959
- relative viability ([1]; 8 µM): 0.978
- relative viability ([2]; first compound 0.253 µM): 0.564
- relative viability ([2]; first compound 0.8 µM): 0.411
- relative viability ([2]; first compound 2.53 µM): 0.483
- relative viability ([2]; first compound 8 µM): 0.464
- relative viability ([3]; first compound 0.253 µM): 0.731
- relative viability ([3]; first compound 0.8 µM): 0.844
- relative viability ([3]; first compound 2.53 µM): 0.644
- relative viability ([3]; first compound 8 µM): 0.849
- relative viability ([4]; first compound 0.253 µM): 0.748
- relative viability ([4]; first compound 0.8 µM): 0.431
- relative viability ([4]; first compound 2.53 µM): 0.519
- relative viability ([4]; first compound 8 µM): 0.532
- relative viability ([5]; first compound 0.253 µM): 0.855
- relative viability ([5]; first compound 0.8 µM): 0.744
- relative viability ([5]; first compound 2.53 µM): 0.696
- relative viability ([5]; first compound 8 µM): 0.772

Cell Line: UMC-11
- relative viability ([1]; 0.253 µM): 0.946
- relative viability ([1]; 0.8 µM): 0.935
- relative viability ([1]; 2.53 µM): 0.951
- relative viability ([1]; 8 µM): 0.969
- relative viability ([2]; first compound 0.253 µM): 0.463
- relative viability ([2]; first compound 0.8 µM): 0.434
- relative viability ([2]; first compound 2.53 µM): 0.485
- relative viability ([2]; first compound 8 µM): 0.496
- relative viability ([3]; first compound 0.253 µM): 1.09
- relative viability ([3]; first compound 0.8 µM): 0.942
- relative viability ([3]; first compound 2.53 µM): 0.863
- relative viability ([3]; first compound 8 µM): 1.07
- relative viability ([4]; first compound 0.253 µM): 0.376
- relative viability ([4]; first compound 0.8 µM): 0.337
- relative viability ([4]; first compound 2.53 µM): 0.312
- relative viability ([4]; first compound 8 µM): 0.365
- relative viability ([5]; first compound 0.253 µM): 0.619
- relative viability ([5]; first compound 0.8 µM): 0.632
- relative viability ([5]; first compound 2.53 µM): 0.584
- relative viability ([5]; first compound 8 µM): 0.611

Source: the supplement of paper PMC10307832
